This is an account of results in patent publication US20260028364A1, “CATIONIC CHROMENONES AND THEIR USE IN ONCOLOGY” (FLORATEK PHARMA S.A., priority 2022, published 2026).

Common to all, as to assay type: cell-based
Test [1] relates to Wnt/Beta-Catenin. As to the kind of experiment: SelectScreen CellSensor pathway inhibition, Wnt/Beta-Catenin. As to conditions: LEF-TCF-bla HCT116, no stimulus (constitutively activated). The protocol: (§1) Inhibition of various cellular pathways known to be involved in malignancy was tested using the SelectScreen Cell-based Pathway Profiling GeneBLAzer™ cell signaling pathway specific CellSensor™ cell lines ((Thermo Fisher). The assay is based on a beta-lactamase reporter activity which is modulated and can be measured quantitatively and selectively with the LiveBLAzer™-FRET B/G Loading Substrate. SelectScreen Cell-Based Pathway Profiling Service uses XLfit from IDBS. The dose response curve is curve fit to model number 205 (sigmoidal dose-response model). Custom logic was built by Thermo Fisher for the data analysis tool to address the different compound characteristics that can be observed with functional assays.
Wnt/Beta-Catenin—LEF-TCF-bla HCT116—Inhibitor Screen, Constitutively Activated
LEF-TCF-bla HCT116 cells are thawed and resuspended in Assay Media (OPTI-MEM, 0.5% dialyzed FBS, 0.1 mM NEAA, 1 mM Sodium Pyruvate, 100 U/mL/100 μg/mL Pen/Strep) to a concentration of 312,500 cells/mL. 32 μL of cell suspension is added to each well of a 384-well Poly-D-Lysine assay plate. Cells in Assay Media are incubated for 16-24 hours in the plate at 37° C./5% CO2 in a humidified incubator. 4 μL of a 10× serial dilution of ICG-001 (control inhibitor starting concentration, 25,000 nM) or compounds are added to appropriate wells of the plate. […] The plate is read on a fluorescence plate reader.

Test [2] deals with Toll-like Receptor (TLR4). As to the kind of experiment: SelectScreen CellSensor pathway inhibition, Toll-like Receptor (TLR4). To be noted: NFkB-bla THP-1, stimulus LPS. The protocol: as §1
Toll-like Receptor (TLR4)—NFKB-bla THP-1—Inhibitor Screen, Activated by LPS
NFKB-bla THP-1 cells are thawed and resuspended in Assay Media (RPMI, 0.5% dialyzed FBS, 0.1 mM NEAA, 1 mM Sodium Pyruvate, 100 U/mL/[…] Pen/Strep) to a concentration of 625,000 cells/mL. 32 μL of cell suspension is added to each well of a 384-well TC-Treated assay plate. Cells in Assay Media are incubated for 16-24 hours in the plate at 37° C./5% CO2 in a humidified incubator. […] The plate is read on a fluorescence plate reader.

Test [3] has as its system Oxidative Stress. As to the kind of experiment: SelectScreen CellSensor pathway inhibition, Oxidative Stress. As to conditions: ARE-bla HepG2, stimulus tBHQ. Here is the method: as §1
Oxidative Stress—ARE-bla HepG2—Inhibitor Screen, Activated by tBHQ
ARE-bla HepG2 cells are thawed and resuspended in Assay Media (DMEM, 10% dialyzed FBS, 25 mM HEPES pH 7.3, 0.1 mM NEAA, 100 U/mL/100 μg/mL Pen/Strep) to a concentration of 375,000 cells/mL. 32 μL of cell suspension is added to each well of a 384-well Poly-D-Lysine assay plate. Cells in Assay Media are incubated for 16-24 hours in the plate at 37° C./5% CO2 in a humidified incubator. […] The plate is read on a fluorescence plate reader.

The subject of test [4] is NFKB. The experiment in a line: SelectScreen CellSensor pathway inhibition, NFKB. To be noted: NFKB-bla Jurkat, stimulus TNF-alpha. The protocol: as §1
NFKB—NFKB-bla Jurkat—Inhibitor Screen, Activated by TNF-Alpha
NFKB-bla Jurkat cells are thawed and resuspended in Assay Media (DMEM, 10% dialyzed FBS, 25 mM HEPES pH 7.3, 0.1 mM NEAA, 100 U/mL/100 μg/mL Pen/Strep) to a concentration of 625,000 cells/mL. […] 4 μL of 10×control activator TNF-alpha at the pre-determined EC80 concentration is added to wells containing the control inhibitor or compounds.
The plate is incubated for 5 hours at 37° C./5% CO2 in a humidified incubator. […] The plate is read on a fluorescence plate reader.

Test [5] relates to JAK/STAT. As to the kind of experiment: SelectScreen CellSensor pathway inhibition, JAK/STAT. To be noted: ISRE-bla Jurkat, stimulus IFN-alpha. Here is the method: as §1
JAK/STAT—ISRE-bla HEK 293T—Inhibitor Screen, Activated by IFN-Alpha
ISRE-bla HEK 293T cells are thawed and resuspended in Assay Media (OPTI-MEM, 0.5% dialyzed FBS, 0.1 mM NEAA, 1 mM Sodium Pyruvate, 100 U/mL/[…] Pen/Strep) to a concentration of 625,000 cells/mL. 32 μL of cell suspension is added to each well of a 384-well TC-Treated assay plate. Cells in Assay Media are incubated for 16-24 hours in the plate at 37° C./5% CO2 in a humidified incubator. […] 4 μL of 10× control activator IFN-alpha at the pre-determined EC80 concentration is added to wells containing the control inhibitor or compounds. […] The plate is read on a fluorescence plate reader.

In general, IC50 refers to the midpoint of a concentration-inhibition curve. `O=C1[C@H](Cc2ccc(O)cc2)N2C(=O)CCN(C(=O)NCc3ccccc3)[C@H]2CN1Cc1cccc2ccccc12` [ICG-001, reference compound] had an IC50 in test [1] of 1830 nM. As to `Cn1cc(C2=C(c3cn(CCCSC(=N)N)c4ccccc34)C(=O)NC2=O)c2ccccc21` [Ro-31-8220, reference compound], the IC50 in test [2] was determined as 460 nM; in test [3], 1670 nM.

In test [4], `CC1=C(CO)C(=O)O[C@@H]([C@@H](C)[C@H]2CC[C@H]3[C@@H]4C[C@H]5O[C@]56[C@@H](O)C=CC(=O)[C@]6(C)[C@H]4CC[C@]23C)C1` [Withaferin A, reference compound] had a concentration for half-maximal inhibition (IC50) of 240 nM. Take JAK Inhibitor I [reference compound]: the concentration for half-maximal inhibition (IC50) in test [5] is 19 nM.
